Data on three compounds can be found in ChEMBL document CHEMBL5303573, “Mapping human microbiome drug metabolism by gut bacteria and their genes” (Nature, 2019).

Data set [1] is described as follows: The drug is tested on Bacteroides finegoldii strain: DSM17565 for biotransformation. The drug concentrations were measured before and after a 12-h incubation by liquid-chromatography-coupled mass spectrometry (LC–MS). The settings on record: 2 µM.
The conditions of data set [2]: limosilactobacillus reuteri cf48-3a, 12 h, 2 µM.
Description: The drug is tested on Lactobacillus reuteri CF48-3A strain: BEI HM-102 for biotransformation. The drug concentrations were measured before and after a 12-h incubation by liquid-chromatography-coupled mass spectrometry (LC–MS)
Data set [3] can be described thus: The drug is tested on Enterococcus faecalis strain: V583 for biotransformation. The drug concentrations were measured before and after a 12-h incubation by liquid-chromatography-coupled mass spectrometry (LC–MS). The settings on record: 2 µM.
A short description of data set [4]: The drug is tested on Collinsella intestinalis strain: DSM13280 for biotransformation. The drug concentrations were measured before and after a 12-h incubation by liquid-chromatography-coupled mass spectrometry (LC–MS). The settings on record: 2 µM.
The conditions of data set [5]: bacteroides thetaiotaomicron, 12 h, 2 µM.
Description: The drug is tested on Bacteroides thetaiotaomicron strain: 7330 for biotransformation. The drug concentrations were measured before and after a 12-h incubation by liquid-chromatography-coupled mass spectrometry (LC–MS)
A short description of data set [6]: The drug is tested on Subdoligranulum variabile strain: DSM15176 for biotransformation. The drug concentrations were measured before and after a 12-h incubation by liquid-chromatography-coupled mass spectrometry (LC–MS). The settings on record: 2 µM.
Data set [7] is described as follows: The drug is tested on Anaerotruncus colihominis strain: DSM17241 for biotransformation. The drug concentrations were measured before and after a 12-h incubation by liquid-chromatography-coupled mass spectrometry (LC–MS). The settings on record: 2 µM.
The conditions of data set [8]: bacteroides fragilis, 12 h, 2 µM.
Description: The drug is tested on Bacteroides fragilis strain: DS-208 for biotransformation. The drug concentrations were measured before and after a 12-h incubation by liquid-chromatography-coupled mass spectrometry (LC–MS)
Data set [9] can be described thus: The drug is tested on Escherichia coli strain: BW25113 for biotransformation. The drug concentrations were measured before and after a 12-h incubation by liquid-chromatography-coupled mass spectrometry (LC–MS). Conditions: 2 µM.
For data set [10] the following is noted: segatella copri, 12 h, 2 µM.
Description: The drug is tested on Prevotella copri strain: DSM18205 for biotransformation. The drug concentrations were measured before and after a 12-h incubation by liquid-chromatography-coupled mass spectrometry (LC–MS)
A short description of data set [11]: The drug is tested on Providencia rettgeri strain: DSM1131 for biotransformation. The drug concentrations were measured before and after a 12-h incubation by liquid-chromatography-coupled mass spectrometry (LC–MS). It counts as ADME. Set-up: dose 2 uM, timepoint 0 vs 12 hours. The settings on record: 2 µM.
A short description of data set [12]: The drug is tested on Bacteroides fragilis strain: ATCC43859 for biotransformation. The drug concentrations were measured before and after a 12-h incubation by liquid-chromatography-coupled mass spectrometry (LC–MS). The settings on record: 2 µM.
Data set [13] is described as follows: The drug is tested on Clostridium symbiosum strain: ATCC14940 for biotransformation. The drug concentrations were measured before and after a 12-h incubation by liquid-chromatography-coupled mass spectrometry (LC–MS). The settings on record: 2 µM.
Data set [14] is described as follows: The drug is tested on Anaerococcus hydrogenalis strain: DSM7454 for biotransformation. The drug concentrations were measured before and after a 12-h incubation by liquid-chromatography-coupled mass spectrometry (LC–MS). The settings on record: 2 µM.
A short description of data set [15]: The drug is tested on Bacteroides sp. WH2 strain: WH2 for biotransformation. The drug concentrations were measured before and after a 12-h incubation by liquid-chromatography-coupled mass spectrometry (LC–MS). The settings on record: bacteroides sp. wh2, 12 h, 2 µM.
For data set [16] the following is noted: bacteroides thetaiotaomicron, 12 h, 2 µM. This is another data set of the same source.
Description: The drug is tested on Bacteroides thetaiotaomicron strain: VPI-5482 for biotransformation. The drug concentrations were measured before and after a 12-h incubation by liquid-chromatography-coupled mass spectrometry (LC–MS)
A short description of data set [17]: The drug is tested on Bacteroides uniformis strain: ATCC8492 for biotransformation. The drug concentrations were measured before and after a 12-h incubation by liquid-chromatography-coupled mass spectrometry (LC–MS). Conditions: 2 µM.
Data set [18] can be described thus: The drug is tested on Bacteroides caccae strain: ATCC43185 for biotransformation. The drug concentrations were measured before and after a 12-h incubation by liquid-chromatography-coupled mass spectrometry (LC–MS). The settings on record: 2 µM.
Data set [19] in a line: The drug is tested on Parabacteroides merdae strain: ATCC43184 for biotransformation. The drug concentrations were measured before and after a 12-h incubation by liquid-chromatography-coupled mass spectrometry (LC–MS). Conditions: 2 µM.
The conditions of data set [20]: bacteroides eggerthii, 12 h, 2 µM.
Description: The drug is tested on Bacteroides eggerthii strain: DSM20697 for biotransformation. The drug concentrations were measured before and after a 12-h incubation by liquid-chromatography-coupled mass spectrometry (LC–MS)

Each structure is given as a SMILES string.

As to `CC(=O)OCC(=O)[C@@]1(O)[C@@H](C)C[C@H]2[C@@H]3CCC4=CC(=O)C=C[C@]4(C)[C@@]3(F)[C@@H](O)C[C@@]21C` [BETAMETHASONE ACETATE], the “Bacterial Biotransformation” value in data set [1] is “Compound NOT metabolized”; in [2], “Compound NOT metabolized”; in data set [3] it was “Compound NOT metabolized”; in [4], “Compound NOT metabolized”; in data set [5], “Compound metabolized”; in [6], “Compound NOT metabolized”. For the same compound, the “Bacterial Biotransformation” value in data set [7] is “Compound NOT metabolized”; in data set [8], “Compound metabolized”; in [9], “Compound NOT metabolized”; in data set [10], “Compound NOT metabolized”; in data set [11] it was “Compound NOT metabolized”; in data set [12] it was “Compound metabolized”. Moreover, the “Bacterial Biotransformation” value is on record as “Compound NOT metabolized” in [13], “Compound NOT metabolized” in data set [14], “Compound NOT metabolized” in [15] and “Compound metabolized” in [16].

Turning to `C[C@@H](CO)NC(=O)[C@@H]1C=C2c3cccc4[nH]cc(c34)C[C@H]2N(C)C1.O=C(O)/C=C\C(=O)O` [ERGONOVINE MALEATE], the “Bacterial Biotransformation” value was “Compound NOT metabolized” in [1]; “Compound metabolized” in [2]; “Compound NOT metabolized” in [3]; “Compound metabolized” in [5]; “Compound NOT metabolized” in data set [6]; “Compound metabolized” in data set [7]. For the same compound, the “Bacterial Biotransformation” value in [17] is “Compound metabolized”; in data set [8], “Compound metabolized”; in data set [9], “Compound NOT metabolized”; in data set [10], “Compound metabolized”; in data set [11] it was “Compound NOT metabolized”; in data set [12], “Compound metabolized”. The “Bacterial Biotransformation” value in [13], in data set [14], in [15] and in data set [16] was “Compound metabolized” each time.

Regarding `OC(c1cc(C(F)(F)F)nc2c(C(F)(F)F)cccc12)C1CCCCN1` (centres undefined) [MEFLOQUINE], the “Bacterial Biotransformation” value in [1], in data set [2], in data set [18], in [3], in [4] and in data set [5] was “Compound NOT metabolized” each time. Further, the “Bacterial Biotransformation” value in data set [19] is recorded as “Compound NOT metabolized”; in data set [6], “Compound NOT metabolized”; in data set [20], “Compound NOT metabolized”; in [17], “Compound NOT metabolized”; in data set [9] it was “Compound metabolized”; in data set [10], “Compound NOT metabolized”. The “Bacterial Biotransformation” value in data set [11], in data set [12], in data set [13], in data set [15] and in [16] was “Compound NOT metabolized” each time.
